We go through two compounds from US20060142593A1, “Platinum compounds” (Sonus Pharmaceuticals, Inc., priority 2002, published 2006).

Structures are written as SMILES.

Series [1] concerns HT-29 cells. To be noted: HT-29, previously determined NCI values; cited from earlier work.
For series [2], the system named is rats. The series can be described thus: Blood urea nitrogen (BUN) as measure of renal function (Example 8). It counts as in vivo. As to conditions: rat plasma, 8 mg/kg cisplatin, 9.9 mg/kg carboplatin, 19.6 mg/kg S-9168. The procedure: Methods. Four groups of eight rats were cannulated as described in Example 6. […] The fourth group of rats was dosed with saline. Two rats in each group were sacrificed on days 4, 6, and 8 after treatment and 2 ml of blood were withdrawn. The blood sample was spun at 8000 rpm. for 2 minutes and the plasma was removed. BUN assays were performed using the Sigma Blood Urea Nitrogen Kit (Sigma Diagnostics Co., St. Louis, Mo.; Cat. No. 535-A).

In series [3] the test system is OVCAR-3 cells. The series can be described thus: Cytotoxicity assay (sulforhodamine B), OVCAR-3. Format: cell-based. As to conditions: OVCAR-3, Assay 6, 48 h drug exposure. The procedure:
(§1) Methods. NCI-H460, HCT-15, OVCAR-3, CACO-2, MCF-7, HT-29, and HCT-116 cells were inoculated into 96 well microtiter plates in 100 microliters of medium at plating densities ranging from 5000 to 40000 cells/well, as given by NCI tables. After cell inoculation, the microtiter plates were incubated at 37° C., 5% CO2, 95% air, and 100% relative humidity for 24 hours. After 24 hours, 2 control plates of each cell line (time zero controls) were fixed by the addition of 30% trichloroacetic acid (TCA, final TCA concentration is 10% w/v). S-9168 was solubilized in saline. […] Additional 4, 10 fold, or ½ log serial dilutions were made to provide a total of five drug concentrations plus controls. Aliquots of 100 microliters of different drug dilutions were added to the appropriate microtiter wells already containing 100 microliters of medium. Following drug addition, the plates were incubated for an additional 48 hours under the same conditions provided above. The assays were terminated by the addition of cold TCA as described above for the time zero controls. The plates were then incubated at 4° C. for at least 60 minutes to fix the cells to the bottom of the plate. […] After staining, unbound dye was removed by washing five times with 1% acetic acid and the plates were allowed to air dry for 12-24 hours at room temperature. […]

The test system of series [4] is HCT-15 cells. The series can be described thus: Cytotoxicity assay (sulforhodamine B), HCT-15. It counts as cell-based. The procedure:
as §1

For series [5], the system named is NCI-H460 cells. The series can be described thus: Cytotoxicity assay (sulforhodamine B), NCI-H460. It counts as cell-based. The protocol:
as §1

The test system of series [6] is NCI-H460 cells. To be noted: NCI-H460, previously determined NCI values; cited from earlier work.
Series [7] deals with MCF-7 cells. As to conditions: MCF-7, previously determined NCI values; cited from earlier work.
Series [8] has as its system OVCAR-3 cells. As to conditions: OVCAR-3, previously determined NCI value; cited from earlier work.
Series [9] has as its system HCT-116 cells. To be noted: HCT-116, previously determined NCI values; cited from earlier work.
The subject of series [10] is rats. Description: Plasma creatinine as measure of renal function (Example 7). To be noted: rat plasma, 8 mg/kg cisplatin, 9.9 mg/kg carboplatin, 19.6 mg/kg S-9168. Format: in vivo. The procedure: Methods. Three groups of two rats were cannulated in the jugular vein and allowed to recover for approximately 24 hours. […] Blood samples (1.8 ml) were taken via the jugular vein canal before treatment (day 0) and 1, 2, 3, and 4 days after treatment, spun at 8000 rpm. for 2 minutes, and the plasma was removed. Creatinine assays were performed using the Sigma Creatinine Kit (Sigma Diagnostics Co., St. Louis, Mo.; Cat. No. 555-A) according to the Sigma creatinine assay protocol, in which the difference in color intensity at 500 nm of a sample containing creatinine and alkaline picrate solution before and after acidification is measured. The limit of linearity for the UV spectrophotometer was established by using the calibration curve procedure in the Sigma creatinine assay protocol.
Methods. Four groups of eight rats were cannulated as described in Example 6. […] The fourth group of rats was dosed with saline. Two rats in each group were sacrificed on days 4, 6, and 8 after treatment and 2 ml of blood were withdrawn. The blood sample was spun at 8000 rpm. for 2 minutes and the plasma was removed. Creatinine assays were performed as described in Example 6.

The test system of series [11] is HCT-15 cells. As to conditions: HCT-15, previously determined NCI values; cited from earlier work.
Series [12] relates to HCT-116 cells. Description: Cytotoxicity assay (sulforhodamine B), HCT-116. As to conditions: HCT-116, Assay 9, 48 h drug exposure. It counts as cell-based. The procedure: as §1
The subject of series [13] is MCF-7 cells. Description: Cytotoxicity assay (sulforhodamine B), MCF-7. It counts as cell-based. The procedure:
as §1

The test system of series [14] is HT-29 cells. Description: Cytotoxicity assay (sulforhodamine B), HT-29. As to conditions: HT-29, Assay 8, 48 h drug exposure. Format: cell-based. The procedure:
as §1

For the compound `N.N.O=C([O-])C1(C(=O)[O-])CCC1.[Pt+2]` [Carboplatin, cis-diamine[1,1-cyclobutnaedicarboxylate(2-)-O,O′-platinum(II)], the “GI50 (log), NCI values” is recorded as “(−4.41) Pt mg/ml (log)” in series [1]; “(−5.21) Pt mg/ml (log)” in series [6]; “(−4.61) Pt mg/ml (log)” in series [7]; “(−4.51) Pt mg/ml (log)” in series [9]; “(−4.31) Pt mg/ml (log)” in [11]. The “average BUN level” value in [2] (day 4) worked out at 28.92 mg/dL; in [2] (day 6), 21.59 mg/dL; in [2] (day 8), 25.52 mg/dL. The “GI50 (log)” value in [3] is reported as “(−4.82) Pt mg/ml (log)”; in series [4] (HCT-15, Assay 2, 48 h drug exposure) it was “(−4.31) Pt mg/ml (log)”; in series [5] (NCI-H460, Assay 2, 48 h drug exposure), “(−4.96) Pt mg/ml (log)”. The “GI50 (log), NCI value” in [8] is given as “(−4.91) Pt mg/ml (log)”. In addition, the average creatinine level came out at 0.6659 mg/dL in series [10] (day 4), 0.7039 mg/dL in series [10] (day 6) and 0.5402 mg/dL in [10] (day 8).

On to `N.N.[Cl][Pt][Cl]` [Cisplatin, cis-diaminedichloroplatinum(II)], for which the “GI50 (log), NCI values” in series [1] is recorded as “(−5.82) Pt mg/ml (log)”; in series [6], “(−6.92) Pt mg/ml (log)”; in series [7], “(−6.22) Pt mg/ml (log)”; in [9], “(−6.12) Pt mg/ml (log)”; in [11], “(−5.82) Pt mg/ml (log)”. The “GI50 (log)” value in series [12] is recorded as “(−6.13) Pt mg/ml (log)”; in series [4] (HCT-15, Assay 5, 48 h drug exposure), “(−6.65) Pt mg/ml (log)”; in series [5] (NCI-H460, Assay 1, 48 h drug exposure) it was “(−6.98) Pt mg/ml (log)”; in [13] (MCF-7, Assay 2, 48 h drug exposure), “(−5.10) Pt mg/ml (log)”; in series [13] (MCF-7, Assay 7, 48 h drug exposure) it was “(−6.14) Pt mg/ml (log)”; in series [14], “(−5.99) Pt mg/ml (log)”. Besides, the “GI50 (log), NCI value” in series [8] is “(−6.32) Pt mg/ml (log)”.
